ChEMBL document CHEMBL4130413, “1-Aryl-1H- and 2-aryl-2H-1,2,3-triazole derivatives blockade P2X7 receptor in vitro and inflammatory response in vivo” (Eur J Med Chem, 2017)
Calls of active or inactive are those of the source. No cut-off for these calls is given here.

Tests used:
[1] = target: P2X purinoceptor 7 (Mus musculus) (UniProt Q9Z1M0); test: Antagonist activity at P2X7 receptor in Swiss mouse peritoneal macrophages assessed as inhibition of ATP-induced propidium iodide uptake at 10 uM after 30 mins by FLIPR assay relative to 1 mM ATP
Peritoneal macrophage = test: Toxicity in Swiss mouse peritoneal macrophages assessed as LDH release at 10 uM after 60 mins relative to 0.05% Triton X-100; assay type: cell-based; settings: 1 h
[2] = target: T1, P2X purinoceptor 7 (Homo sapiens) (UniProt Q99572); test: Antagonist activity at human P2X7 receptor expressed in HEK293 cells assessed as inhibition of ATP-induced ethidium iodide uptake at 10 uM preincubated for 10 mins followed by ATP addition measured after 20 mins by FLIPR assay relative to 1 mM ATP; assay type: cell-based
T1 sequence (whole entry): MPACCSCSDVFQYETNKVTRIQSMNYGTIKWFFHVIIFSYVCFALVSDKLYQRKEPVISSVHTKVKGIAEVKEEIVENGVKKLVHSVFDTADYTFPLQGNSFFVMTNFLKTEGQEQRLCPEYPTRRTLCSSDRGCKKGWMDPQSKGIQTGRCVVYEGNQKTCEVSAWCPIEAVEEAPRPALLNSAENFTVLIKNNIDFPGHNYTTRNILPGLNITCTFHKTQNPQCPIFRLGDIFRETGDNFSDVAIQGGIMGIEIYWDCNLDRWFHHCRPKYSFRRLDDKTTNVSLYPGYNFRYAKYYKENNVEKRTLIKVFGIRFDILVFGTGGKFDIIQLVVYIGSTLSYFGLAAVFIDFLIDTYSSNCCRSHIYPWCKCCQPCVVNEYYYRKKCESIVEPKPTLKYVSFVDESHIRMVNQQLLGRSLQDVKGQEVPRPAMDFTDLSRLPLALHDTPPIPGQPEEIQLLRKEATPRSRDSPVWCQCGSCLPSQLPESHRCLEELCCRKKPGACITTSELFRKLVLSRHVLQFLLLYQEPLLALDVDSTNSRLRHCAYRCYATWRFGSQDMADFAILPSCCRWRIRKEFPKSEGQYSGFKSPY

[3] = target: T2, P2X purinoceptor 7 (Mus musculus) (UniProt Q9Z1M0); test: Antagonist activity at mouse P2X7 receptor expressed in HEK293 cells assessed as inhibition of ATP-induced ethidium iodide uptake at 10 uM preincubated for 10 mins followed by ATP addition measured after 20 mins by FLIPR assay relative to 1 mM ATP; assay type: cell-based
T2 sequence (whole entry): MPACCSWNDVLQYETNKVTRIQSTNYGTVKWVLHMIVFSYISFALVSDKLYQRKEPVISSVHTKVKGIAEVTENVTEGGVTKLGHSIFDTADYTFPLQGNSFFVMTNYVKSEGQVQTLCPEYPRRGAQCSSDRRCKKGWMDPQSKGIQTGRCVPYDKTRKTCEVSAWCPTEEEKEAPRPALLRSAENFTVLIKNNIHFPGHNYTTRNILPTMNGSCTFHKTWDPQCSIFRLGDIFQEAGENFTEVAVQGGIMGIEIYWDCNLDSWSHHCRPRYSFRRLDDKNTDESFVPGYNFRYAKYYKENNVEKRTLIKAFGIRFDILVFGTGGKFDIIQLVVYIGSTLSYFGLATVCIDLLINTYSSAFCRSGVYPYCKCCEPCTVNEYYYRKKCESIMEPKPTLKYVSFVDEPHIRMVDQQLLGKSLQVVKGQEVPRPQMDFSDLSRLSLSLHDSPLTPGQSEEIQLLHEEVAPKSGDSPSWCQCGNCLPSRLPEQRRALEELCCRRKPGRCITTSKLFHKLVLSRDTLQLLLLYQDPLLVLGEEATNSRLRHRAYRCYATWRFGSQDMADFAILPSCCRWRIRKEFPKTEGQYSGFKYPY

[4] = Cytotoxicity against Swiss mouse peritoneal macrophages after 24 hrs by LDH-release assay; assay type: cell-based, Peritoneal macrophage
P2X purinoceptor 7 [5] = target: T3, P2X purinoceptor 7 (Mus musculus, UniProt Q9Z1M0); test: (§1) Antagonist activity at P2X7 receptor in Swiss mouse peritoneal macrophages assessed as inhibition of ATP-induced propidium iodide uptake after 25 mins by flow cytometric analysis
T3 sequence (Q9Z1M0 whole entry): T2 sequence (whole entry)

[6] = target: T2, P2X purinoceptor 7 (Mus musculus); test: as §1
P2X purinoceptor 7 [7] = target: T3, P2X purinoceptor 7; test: Antagonist activity at P2X7 receptor in Swiss mouse peritoneal macrophages assessed as inhibition of ATP-induced current at holding potential of -60 mV preincubated for 5 mins followed by ATP addition measured after 5 mins by Whole cell patch-clamp analysis
P2X purinoceptor 7 [8] = target: T4, P2X purinoceptor 7 (Homo sapiens, UniProt Q99572); test: Antagonist activity at human P2X7 receptor expressed in HEK293 cells assessed as inhibition of ATP-induced ethidium iodide uptake preincubated for 10 mins followed by ATP addition measured after 20 mins by spectrofluorometric analysis; assay type: cell-based
T4 sequence (Q99572 whole entry): T1 sequence (whole entry)

Row | Structure (SMILES) | inhibition [1] | inhibition [2] | inhibition [3] | IC50 (P2X purinoceptor 7 [5]) | inhibition [6] | IC50 (P2X purinoceptor 7 [7]) | IC50 (P2X purinoceptor 7 [8]) | Activity (Peritoneal macrophage) | CC50 at 24 h [4]
1 | CCOCc1cnn(-c2ccccc2)n1 | 70% | 79.1% | Active |  |  |  |  | 26.49% | 
2 | CCCCCC(=O)OCc1cn(-c2ccccc2)nn1 | 44.6% | 18.2% |  |  |  |  |  | 15.83% | 
3 | COc1ccc(-n2cc(C=O)nn2)cc1 | 44.3% | 50.3% |  |  |  |  |  | 17.92% | 
4 | O=Cc1cnn(-c2ccccc2)n1 | 31.5% | 42.1% |  |  |  |  |  | 41.65% | 
5 | O=C(OCc1cn(-c2ccc(Cl)cc2)nn1)c1ccccc1 | 60.6% | 26.8% |  |  |  |  |  | 45.73% | 
6 | CCCCOCc1cnn(-c2ccccc2)n1 | 37.1% | 16.1% |  |  |  |  |  | 27.19% | 
7 | O=C(OCc1cnn(-c2ccccc2)n1)c1ccccc1 | 81.3% | 88.2% |  |  |  |  |  | 36.94% | 
8 | O=Cc1cn(-c2ccccc2)nn1 | 84.6% | 95.3% | Active | 167 nM | Dose-dependent effect | 103 nM | 478 nM | 10.51% | 3740 nM
9 | OCc1cnn(-c2ccccc2)n1 | 84.2% | 90.2% | Active | 96 nM | Dose-dependent effect | 81 nM | 522 nM | 9.18% | 2360 nM
10 | O/N=C/c1cn(-c2ccccc2)nn1 | 58% | 64.3% |  |  |  |  |  | 28.59% | 
11 | CCCCCCCCCC(=O)OCc1cn(-c2ccccc2)nn1 | 60% | 23.2% |  |  |  |  |  | 42.53% | 
12 | O/N=C/c1cnn(-c2ccccc2)n1 | 83% | 94.3% | Active | 349 nM | Dose-dependent effect | 457 nM | 897 nM | 12.66% | 250 nM
13 | CCCOCc1cnn(-c2ccccc2)n1 | 26.6% | 41.2% |  |  |  |  |  | 13.33% | 
14 | CCCCCCCCCC(=O)OCc1cnn(-c2ccccc2)n1 | 29.5% | 19.2% |  |  |  |  |  | 42.5% | 
15 | O=C(OCc1cnn(-c2ccccc2)n1)C1CCCC1 | 29.6% | 10.2% |  |  |  |  |  | 43.04% | 
16 | O=C(OCc1cn(-c2cc(Cl)ccc2Cl)nn1)c1ccccc1 | 11% | 3% |  |  |  |  |  | 26.66% | 
17 | OCc1cn(-c2ccccc2)nn1 | 10.9% | 30.1% |  |  |  |  |  | 20.98% | 
18 | CC(=O)OCc1cnn(-c2ccccc2)n1 | 73.5% | 80.1% |  |  |  |  |  | 38.5% | 
19 | CCCCC(=O)OCc1cn(-c2ccc(OC)cc2)nn1 |  | 8.15% |  |  |  |  |  | 46.3% | 
20 | O=Cc1cn(-c2cc(Cl)ccc2Cl)nn1 | 36.7% | 44% |  |  |  |  |  | 13.73% | 
21 | CCCCCCCCCC(=O)OCc1cn(-c2ccc(Cl)cc2)nn1 | 76% | 78% |  | 107 nM | Dose-dependent effect | 103 nM | 108 nM | 8% | 2840 nM
22 | CC(=O)OCc1cn(-c2ccccc2)nn1 | 84% | 81% |  |  |  |  |  | 36.39% | 
23 | O=C(OCc1cn(-c2ccccc2)nn1)c1ccccc1 | 32.1% | 16.1% |  |  |  |  |  | 58.1% | 
24 | COc1ccc(-n2cc(COC(C)=O)nn2)cc1 | 29.4% | 9.12% |  |  |  |  |  | 15% | 
25 | COc1ccc(-n2cc(COC(=O)c3ccccc3)nn2)cc1 | 24.4% | 10.6% |  |  |  |  |  | 10.66% | 

Further lines, with some results ahead:

Row | inhibition [1] | inhibition [2] | inhibition [3] | IC50 (P2X purinoceptor 7 [5]) | inhibition [6] | IC50 (P2X purinoceptor 7 [7]) | IC50 (P2X purinoceptor 7 [8]) | Structure (SMILES) | Activity (Peritoneal macrophage) | CC50 at 24 h [4]
26 | 9.86% | 1.17% |  |  |  |  |  | CCCCCCCCCC(=O)OCc1cn(-c2cc(Cl)ccc2Cl)nn1 | 10% | 
27 | 65.2% | 29.4% |  |  |  |  |  | CC(=O)OCc1cn(-c2cc(Cl)cc(Cl)c2)nn1 | 45.33% | 
28 | 11.4% | 41.1% |  |  |  |  |  | OCc1cn(-c2cc(Cl)cc(Cl)c2)nn1 | 30.55% | 
29 | 11.1% | 2.2% |  |  |  |  |  | CCCCCC(=O)OCc1cn(-c2ccc(Cl)cc2)nn1 | 34.19% | 
30 | 32.5% | 62.4% |  |  |  |  |  | CCCOCc1cn(-c2ccc(Cl)cc2)nn1 | 26.66% | 
31 | 20.6% | 7.28% |  |  |  |  |  | O=C(OCc1cn(-c2cc(Cl)ccc2Cl)nn1)C1CCCC1 | 22.66% | 
32 | 28.3% | 38.1% |  |  |  |  |  | OCc1cn(-c2cc(Cl)ccc2Cl)nn1 | 12.09% | 
33 | 25.1% | 20.1% |  |  |  |  |  | CCCOCc1cn(-c2ccccc2)nn1 | 14.66% | 
34 | 22.5% | 26.1% |  |  |  |  |  | OCc1cn(-c2ccc(Cl)cc2)nn1 | 15.57% | 
35 | 24% | 33.7% |  |  |  |  |  | CCCOCc1cn(-c2cc(Cl)cc(Cl)c2)nn1 | 14.03% | 
36 | 14.2% | 2.96% |  |  |  |  |  | O=C(OCc1cn(-c2cc(Cl)cc(Cl)c2)nn1)c1ccccc1 | 24.02% | 
37 | 79.8% | 90.1% |  | 317 nM | Dose-dependent effect | 316 nM | 621 nM | CCCCOCc1cn(-c2cc(Cl)ccc2Cl)nn1 | 11.66% | 505 nM
38 | 15.6% | 35.8% |  |  |  |  |  | CCCOCc1cn(-c2ccc(OC)cc2)nn1 | 13.03% | 
39 | 23.2% | 9.89% |  |  |  |  |  | CC(=O)OCc1cn(-c2ccc(Cl)cc2)nn1 | 19.66% | 
40 | 36.5% | 51.2% |  |  |  |  |  | CCOCc1cn(-c2cc(Cl)cc(Cl)c2)nn1 | 34% | 
41 | 49.3% | 56.7% |  |  |  |  |  | CCOCc1cn(-c2ccccc2)nn1 | 52.73% | 
42 | 75.5% | 45.3% |  |  |  |  |  | CCOCc1cn(-c2cc(Cl)ccc2Cl)nn1 | 42.66% | 
43 | 44.8% | 45% |  |  |  |  |  | CCOCc1cn(-c2ccc(OC)cc2)nn1 | 20.66% | 
44 | 76.6% | 71.2% |  |  |  |  |  | CC(=O)OCc1cn(-c2cc(Cl)ccc2Cl)nn1 | 32% | 
45 | 58% | 62.1% |  |  |  |  |  | O/N=C/c1cn(-c2cc(Cl)cc(Cl)c2)nn1 | 29.47% | 
46 | 35.8% | 15.1% |  |  |  |  |  | CCCCOCc1cn(-c2ccc(Cl)cc2)nn1 | 30.33% | 
47 | 31.4% | 51.3% |  |  |  |  |  | CCCCOCc1cn(-c2ccc(OC)cc2)nn1 | 27.66% | 
48 | 78.1% | 67.5% | Active |  |  |  |  | CCCCOCc1cn(-c2ccccc2)nn1 | 32.33% | 
49 | 24% | 46.6% |  |  |  |  |  | CCCOCc1cn(-c2cc(Cl)ccc2Cl)nn1 | 22.66% | 
